Measured values reported in patent US10251395B2, “Substituted furano-/thienocycloalkylamino-2-pyrimidine derivatives and use thereof for controlling undesired plant growth” (Bayer CropScience Aktiengesellschaft, priority 2015, dated 2019).

Experiments:
Assay type in all cases: in vivo
[1] = test system: Abutilon theophrasti; test: Pre-emergence herbicidal effect; conditions: Dosage 320 g/ha, scored visually after 3 weeks
Outline: (§1)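 Visual damage score in % after 3 weeks in the greenhouse, relative to untreated controls (0% like control, 100% plants dead). Compounds were sprayed pre-emergence onto covering soil over seeds sown in sandy loam, as WP or EC in water at 600 to 800 L/ha plus 0.2% wetting agent.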

[2] = test system: Alopecurus myosuroides; test: Pre-emergence herbicidal effect; conditions: scored visually after 3 weeks
Outline: as §1

[3] = test system: Amaranthus retroflexus; test: Pre-emergence herbicidal effect; conditions: scored visually after 3 weeks
Outline: as §1

[4] = test system: Lolium multiflorum; test: Pre-emergence herbicidal effect; conditions: Dosage 320 g/ha, scored visually after 3 weeks
Outline: as §1

[5] = test system: Matricaria inodora; test: Pre-emergence herbicidal effect; conditions: scored visually after 3 weeks
Outline: as §1

[6] = test system: Polygonum convolvulus; test: Pre-emergence herbicidal effect; conditions: scored visually after 3 weeks
Outline: as §1

[7] = test system: Setaria viridis; test: Pre-emergence herbicidal effect; conditions: scored visually after 3 weeks
Outline: as §1

[8] = test system: Stellaria media; test: Pre-emergence herbicidal effect; conditions: scored visually after 3 weeks
Outline: as §1

[9] = test system: Veronica persica; test: Pre-emergence herbicidal effect; conditions: scored visually after 3 weeks
Outline: as §1

[10] = test system: Viola tricolor; test: Pre-emergence herbicidal effect; conditions: scored visually after 3 weeks
Outline: as §1

[11] = test system: Alopecurus myosuroides; test: Post-emergence herbicidal effect; conditions: 320 g/ha, assessed visually after about 3 weeks vs untreated controls
Outline: (§2)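 Greenhouse post-emergence spray: one-leaf seedlings, sandy loam, aqueous WP/EC formulation with 0.2% wetting agent at 600–800 L/ha. Visual assessment after ~3 weeks, as % activity relative to untreated controls.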

[12] = test system: Viola tricolor; test: Post-emergence herbicidal effect; conditions: 320 g/ha, assessed visually after about 3 weeks vs untreated controls
Outline: as §2

[13] = test system: Echinochloa crus-galli; test: Pre-emergence herbicidal effect; conditions: scored visually after 3 weeks
Outline: as §1

[14] = test system: Abutilon theophrasti; test: Post-emergence herbicidal effect; conditions: 320 g/ha, assessed visually after about 3 weeks vs untreated controls
Outline: as §2

[15] = test system: Amaranthus retroflexus; test: Post-emergence herbicidal effect; conditions: 320 g/ha, assessed visually after about 3 weeks vs untreated controls
Outline: as §2

[16] = test system: Echinochloa crus-galli; test: Post-emergence herbicidal effect; conditions: 320 g/ha, assessed visually after about 3 weeks vs untreated controls
Outline: as §2

[17] = test system: Ipomoea purpurea; test: Post-emergence herbicidal effect; conditions: 320 g/ha, assessed visually after about 3 weeks vs untreated controls
Outline: as §2

[18] = test system: Polygonum convolvulus; test: Post-emergence herbicidal effect; conditions: 320 g/ha, assessed visually after about 3 weeks vs untreated controls
Outline: as §2

[19] = test system: Setaria viridis; test: Post-emergence herbicidal effect; conditions: 320 g/ha, assessed visually after about 3 weeks vs untreated controls
Outline: as §2

[20] = test system: Stellaria media; test: Post-emergence herbicidal effect; conditions: assessed visually after about 3 weeks vs untreated controls
Outline: as §2

[21] = test system: Veronica persica; test: Post-emergence herbicidal effect; conditions: 320 g/ha, assessed visually after about 3 weeks vs untreated controls
Outline: as §2

Compound	ABUTH pre-emergence efficacy (herbicidal activity) [1] [%]	ALOMY pre-emergence efficacy (herbicidal activity) ([2]; Dosage 320 g/ha) [%]	AMARE pre-emergence efficacy (herbicidal activity) ([3]; Dosage 80 g/ha) [%]	AMARE pre-emergence efficacy (herbicidal activity) ([3]; Dosage 320 g/ha) [%]	LOLMU pre-emergence efficacy (herbicidal activity) [4] [%]	MATIN pre-emergence efficacy (herbicidal activity) ([5]; Dosage 80 g/ha) [%]	MATIN pre-emergence efficacy (herbicidal activity) ([5]; Dosage 320 g/ha) [%]	POLCO pre-emergence efficacy (herbicidal activity) ([6]; Dosage 320 g/ha) [%]	SETVI pre-emergence efficacy (herbicidal activity) ([7]; Dosage 320 g/ha) [%]	STEME pre-emergence efficacy (herbicidal activity) ([8]; Dosage 80 g/ha) [%]	STEME pre-emergence efficacy (herbicidal activity) ([8]; Dosage 320 g/ha) [%]	VERPE pre-emergence efficacy (herbicidal activity) ([9]; Dosage 80 g/ha) [%]	VERPE pre-emergence efficacy (herbicidal activity) ([9]; Dosage 320 g/ha) [%]	VIOTR pre-emergence efficacy (herbicidal activity) ([10]; Dosage 320 g/ha) [%]	post-emergence efficacy ALOMY [11] [%]	post-emergence efficacy VIOTR [12] [%]	post-emergence efficacy AMARE [15] [%]	post-emergence efficacy PHBPU [17] [%]	post-emergence efficacy STEME ([20]; 320 g/ha) [%]	also measured
Cc1cc2c(o1)CCCC2Nc1ncc(C(F)(F)F)c(N)n1 (racemic) [compound 28]	80	90	100	100	100	90	100	100	100	100	100	100	100	100	100	90	–	–	–	VIOTR pre-emergence efficacy (herbicidal activity) ([10]; Dosage 80 g/ha): 90%
Cc1cc2c(s1)CCC[C@H]2Nc1ncc2c(n1)CCCS2(=O)=O [compound 44]	100	100	100	100	100	100	100	100	100	100	100	100	100	–	90	80	100	100	100	ALOMY pre-emergence efficacy (herbicidal activity) ([2]; Dosage 80 g/ha): 80%; ECHCG pre-emergence efficacy (herbicidal activity) ([13]; Dosage 80 g/ha): 100%; ECHCG pre-emergence efficacy (herbicidal activity) ([13]; Dosage 320 g/ha): 100%; POLCO pre-emergence efficacy (herbicidal activity) ([6]; Dosage 80 g/ha): 100%; SETVI pre-emergence efficacy (herbicidal activity) ([7]; Dosage 80 g/ha): 100%; post-emergence efficacy ABUTH [14]: 90%; post-emergence efficacy ECHCG [16]: 100%; post-emergence efficacy POLCO [18]: 80%; post-emergence efficacy SETVI [19]: 100%; post-emergence efficacy VERPE [21]: 100%
Cc1cc2c(s1)CCCC2Nc1nc(N)c(-c2cncc(Cl)c2)c(C(F)F)n1 (racemic) [compound 300]	–	–	–	100	–	80	90	–	70	80	100	–	–	100	70	–	90	60	90	post-emergence efficacy STEME ([20]; 80 g/ha): 60%
